# Measured values published in patent US10683553B2, “Method for determining sensitivity to simultaneous inhibitor against PARP and Tankyrase” (THE ASAN FOUNDATION, priority 2015, dated 2020).
# Experiments:
# Assay type in all cases: cell-based
# [1] = tested on: SW620 human colon cancer cell line; experiment: Trypan blue apoptosis with overexpressed mutant LIG4 (G833A or T1704C); details: SW620 overexpressing LIG4 mutant G833A or T1704C vs control group (empty); 25 μM and 50 μM, 48 hours
# Description: In order to analyze the degree of apoptosis of Compound A, which is a novel PARP/Tankyrase simultaneous inhibitor, when the p53 genotype is a mutant type and an LIG4 genotype is a mutant type, the present inventors treated a novel PARP/Tankyrase simultaneous inhibitor, Compound A, and the competitive drug PARP inhibitor, olaparib, while overexpressing an LIG4 mutant type in the SW620 human colon cancer cell line in which the p53 gene is a mutant type and an LIG4 genotype is a normal type. Then, the number of cells was measured by trypan blue staining assay to confirm the degree of apoptosis. The conditions and methods of the above experiment were as follows: SW620 human colon cancer cell line in which the p53 gene is a mutant type and the LIG4 gene is a normal type was cultured in RPMI1640 (10% FBS, 1% penicillin/streptomycin) and cultured in a 60 mm plate at 1×10^5 per well for 24 hours at 37° C. G833A or T1704C plasmid DNA in which an LIG4 genotype is a mutant type was infused into cells by means of Lipofectamin 2000 (Invitrogen), and then overexpressed at 37° C. for 48 hours. Then, the cells were treated with each of 25 μM and 50 μM of Compound A, which is a novel PARP/Tankyrase simultaneous inhibitor and olaparib, a competitive drug PARP inhibitor. After 48 hours of culturing, the number of cells was measured by trypan blue staining and the degree of apoptosis was confirmed.
# [2] = tested on: HCT116 human colon cancer cell line; experiment: DNA damage by r-H2AX immunocytochemistry; details: HCT116 (p53 normal type); 50 μM, 48 hours
# Description: In order to analyze the degree of DNA damage of Compound A, which is a novel PARP/Tankyrase simultaneous inhibitor when the p53 gene is a normal type, the present inventors treated a novel PARP/Tankyrase simultaneous inhibitor, Compound A, and the competitive drug PARP inhibitor, olaparib, in the HCT116 human colon cancer cell line in which the p53 gene is a normal type, and then the DNA damage was confirmed by immunochemical method as the expression level of r-H2AX. The conditions and methods of the experiment were as follows: HCT116 human colon cancer cell line in which the p53 gene is a normal type was cultured in RPMI1640 (10% FBS, 1% penicillin/streptomycin) and cultured in a 60 mm plate at 1×10^5 per well for 24 hours at 37° C. Compound A, which is a novel PARP/Tankyrase simultaneous inhibitor, and olaparib, which is a competitive drug PARP inhibitor, were treated with 50 μM each and were cultured for 48 hours. […] The r-H2AX antibody was diluted at a ratio of 1:100 in 1% BSA, reacted overnight at 4° C., washed three times for 10 minutes with TBS-T buffer, and the secondary antibody (alexa Fluor®488 fitc) was diluted at a ratio of 1:100 in 1% BSA, reacted at room temperature for 2 hours, and then washed with TBS-T A buffer three times for 10 minutes, and stained with DAPI (4′,6-diamidino-2-phenylindole) to confirm the expression level of r-H2AX under a fluorescence microscope.
# [3] = tested on: HCT116 human colon cancer cell line; experiment: Western blot of r-H2AX and cleaved caspase 3; details: 50 μM, 48 hours
# Description: (§1) In order to analyze the degree of DNA damage and the degree of apoptosis of Compound A, which is a novel PARP/Tankyrase simultaneous inhibitor, when the p53 gene is a normal type and the LIG4 gene is a mutant type, the present inventors treated a novel PARP/Tankyrase simultaneous inhibitor, Compound A, and the competitive drug PARP inhibitor; olaparib, in the HCT116 human colon cancer cell line in which the p53 gene and an LIG4 gene are normal types and in the RKO human colon cancer cell line in which the p53 gene is a normal type and an LIG4 gene is a mutant type, and then confirmed the DNA damage with the expression level of r-H2Ax by western blotting method and confirmed the degree of apoptosis with the expression level of cleaved caspase 3. The conditions and method of the experiment were as follows: The HCT116 human colon cancer cell line in which the p53 gene and an LIG4 gene are normal types and the RKO human colon cancer cell line in which the p53 gene is a normal type and an LIG4 gene is a mutant type were cultured in RPMI1640 (10% FBS, 1% penicillin/streptomycin) and cultured in a 60 mm plate at 1×10^5 per well for 24 hours at 37° C. Compound A, which is a novel PARP/Tankyrase simultaneous inhibitor, and olaparib, which is a competitive drug PARP inhibitor, were treated with 50 μM each and were cultured for 48 hours. Then, the cells were obtained using a centrifuge. Each cell thus obtained was dissolved using an RIPA buffer, and the proteins were extracted using a high-speed centrifuge. 30 μg protein per cell was electrophoresed by western blot method to separate proteins and transferred to PDVF membrane. The r-H2AX, truncated caspase 3, and b-actin antibody were diluted with each 1:2000 in 5% skim milk. Then, the cells were reacted at 4° C. for 12 hours and then washed three times for 15 minutes with TBS-T buffer. The secondary antibody was diluted with each 1:2000 ratio in 5% skim milk and reacted at room temperature for 2 hours. It was washed with TBS-T buffer three times for 15 minutes to induce luminescence of PDVF membrane using ECL (Enhanced Chemiluminescence) buffer solution to develop protein expression on each anti-body using an X-ray film.
# [4] = tested on: RKO human colon cancer cell line; experiment: Western blot of r-H2AX and cleaved caspase 3; details: 50 μM, 48 hours
# Description: as §1
structure (smiles),measurement,setting,value
"CCOc1cc(CN(C)C)cc2[nH]c(=O)c3c(c12)NCCC3 [Compound A, 8-[(dimethylamino)methyl]-10-ethoxy-1,2,3,4-tetrahydrobenzo[h][1,6]naphthyridin-5(6H)-one]",degree of apoptosis (trypan blue cell count),[1],no change in the apoptosis
same,DNA damage: expression level of r-H2AX (immunocytochemistry),[2],higher expression of r-H2AX than the group treated with olaparib
same,expression amount of truncated caspase 3 (western blot),[3],increased expression amount of the truncated caspase 3
same,expression of r-H2AX (western blot),[3],increased expression of r-H2AX than the group treated with olaparib
same,expression amount of truncated caspase 3 (western blot),[4],increased expression amount of the truncated caspase 3
same,expression of r-H2AX (western blot),[4],increased expression of r-H2AX than the group treated with olaparib
